Test results reported in patent US20150368642A1, “LNA OLIGONUCLEOTIDE CARBOHYDRATE CONJUGATES” (HOFFMANN-LA ROCHE INC., priority 2013, published 2015).
Strand notation (5' to 3'): a small letter for the sugar, then the base; units joined by * are phosphorothioate-linked, units joined directly phosphodiester-linked; [ ] holds rarer units or linkages, { } end groups; capitals alone tell only the bases. {Conj1a} = GalNAc carbohydrate conjugate Conj1a; l = locked nucleic acid (LNA); [5mC] = 5-methylcytosine; d = 2'-deoxy (DNA)

Columns and labels:
ApoB mRNA = assay: In vivo silencing of ApoB mRNA with monoGalNAc conjugates (branched DNA assay); details: Example 4; C57BL6 mice, single 1 mg/kg i.v., day 7; compared to unconjugated #12; FIG. 7a
Description: Capital letters are LNA nucleosides (such as beta-D-oxy LNA), lower case letters are a DNA nucleoside. Subscript s represents a phosphorothioate internucleoside linkage (region A). LNA cytosines are optionally 5-methyl cytosine. The 2PO linker (region B) is 5′ to the sequence region A, and comprises of two DNA nucleosides linked by phosphodiester linkage, with the internucleoside linkage between the 3′ DNA nucleoside of region A and the 5′ LNA nucleoside of region A also being phosphodiester. A linkage group (Y) may be used to link the conjugate group, when present, to region B, or A (SEQ ID NO 8 and 11). To compare the monoGalNAc conjugates with different linkers and the GalNAc cluster C57BL6 mice were treated i.v. with saline control or with a single dose of 1 mg/kg of ASO conjugated to Mono-GalNAc either without biocleavable linker, with Dithio-linker (SS) or with DNA/PO-linker (PO) (FIG. 7a) or with 0.25 mg/kg of ASO conjugated to Mono-GalNAc or GalNAc cluster (FIG. 7b). After 7 days the animals were sacrificed and RNA was isolated from liver and kidney samples and analysed for ApoB mRNA expression.
C57BL6 mice were dosed i.v. with a single dose of 1 mg/kg or 0.25 mg/kg ASO formulated in saline or saline alone according to the above table. […] Total RNA was extracted from liver and kidney samples and ApoB mRNA levels were analysed using a branched DNA assay.

ApoB = assay: Non-human primate study, serum ApoB and LDL-C (ApoB conjugates); type: in vivo, cynomolgus monkeys; details: Example 7; single i.v. dose; FIG. 16
Description: The primary objective for this study is to investigate selected lipid markers over 7 weeks after a single slow bolus injection of anti-PCSK9 and anti-ApoB LNA conjugated to GalNac cluster (Conj2a) to cynomolgus monkeys and assess the potential toxicity of compounds in monkey. The compounds which were prepared in sterile saline (0.9%) at an initial concentration of 0.625 and 2.5 mg/ml).
Male (PCSK9) or female monkeys (ApoB) monkeys of at least 24 months old are used, and given free access to tap water and 180 g of MWM(E) SQC SHORT expanded diet (Dietex France, SDS, Saint Gratien, France) will be distributed daily per animal. The total quantity of food distributed in each cage will be calculated according to the number of animals in the cage on that day. In addition, fruit or vegetables will be given daily to each animal. The animals will be acclimated to the study conditions for a period of at least 14 days before the beginning of the treatment period. During this period, pre-treatment investigations will be performed. The animals are dosed i.v. at a dose if, for example, 0.25 mg/kg or 1 mg/kg. The dose volume will be 0.4 mL/kg. 2 animals are used per group. After three weeks, the data will be analyzed and a second group of animals using a higher or lower dosing regimen may be initiated—preliminary dose setting is 0.5 mg/kg and 1 mg/kg, or lower than that based on the first data set.
The dose formulations will be administered once on Day 1. Animals will be observed for a period of 7 weeks following treatment, and will be released from the study on Day 51. Day 1 corresponds to the first day of the treatment period. Clinical observations and body weight and food intake (per group) will be recorded prior to and during the study.
The following parameters will be determined for all surviving animals at the occasions indicated below: • full biochemistry panel (complete list below)—on Days −8, 15 and 50, • liver Safety (ASAT, ALP, ALAT, TBIL and GGT only)—on Days 4, 8, 22 and 36, • lipid profile (Total cholesterol, HDL-C, LDL-C and Triglycerides) and Apo-B only—on Days −1, 4, 8, 22, 29, 36, and 43.
Blood (approximately 1.0 mL) is taken into lithium heparin tubes (using the ADVIA 1650 blood biochemistry analyzer): Apo-B, sodium, potassium, chloride, calcium, inorganic phosphorus, glucose, HDL-C, LDL-C, urea, creatinine, total bilirubin (TBIL), total cholesterol, triglycerides, alkaline phosphatase (ALP), alanine aminotransferase (ALAT), aspartate aminotransferase (ASAT), creatine kinase, gamma-glutamyl transferase (GGT), lactate dehydrogenase, total protein, albumin, albumin/globulin ratio.
Other Analysis: WO2011009697 & WO2010142805 provides the methods for the following analysis: qPCR, PCSK9/ApoB mRNA analysis, Other analysis includes PCSK9/ApoB protein ELISA, serum Lp(a) analysis with ELISA (Mercodia No. 10-1106-01), tissue and plasma oligonucleotide analysis (drug content), Extraction of samples, standard- and QC-samples, Oligonucleotide content determination by ELISA. […] There was no indication of hepatotoxicity or nephrotoxicity with the ApoB targeting compounds.

HBV = HBV mouse hydrodynamic tailvein injection model, HBV DNA in liver by qPCR; type: in vivo, Balb/C mouse
Description: An LNA oligomer can be assessed for antiviral effect in vivo in a mouse strain, such as BALB/c or C57B/6, where HBV replication can be established by hydrodynamic tail vein injection of a plasmid, such as pAAV/HBV1.3, expressing a partially repeated HBV pregenomic RNA (J Virol. 1995 October; 69(10):6158-69) or pAAV2/HBV1.3, a derivative thereof (WuxiAppTech, Wuxi, China). The injection of the plasmid in a high volume of saline, equal to 8-12% of the body mass of the mouse, will result in the accumulation and expression of the viral pregenomic RNA in the liver, subsequently leading to the establishment of an acute HBV infection. Treatment of the animals with an LNA oligomer can be initiated 1 or more days before the injection of the plasmid or 1 day after the injection of the plasmid. Delivery of the LNA oligomer in saline can be done by intravenous or subcutaneous injection.
An in vivo experiment was performed on SEQ ID 55 and SEQ ID 56, the latter being a GalNAC conjugate of the former (conj1a). The LNA compounds were tested for efficacy against HBV in the mouse hydrodynamic tailvein injection model using the Balb/C mouse strain. LNA compounds were be tested at equimolar doses; 2 and 10 mg/kg, single injection (SEQ ID 55) and at 2.7 and 13.5 mg/kg, single injection (SEQ ID 56). The LNA anti-HBV compounds were compared to saline and to entecavir, an inhibitor of the HBV reverse transcriptase. Entecavir was dosed p.o. daily at 0.1 mg/kg. Where applicable, the animals were treated with the LNA compound 24 hours before the hydrodynamic injection. Entecavir was given in daily doses as described starting 24 hours after the hydrodynamic injection. […] All the animals were monitored on a daily basis for body weight changes and clinical signs for the duration of the in vivo study. […] All the blood samples were collected in tubes containing heparin sodium The portion of the left lobe of each liver was used to determine the level of HBV DNA replication by qPCR, as copies per unit weight of liver in which the quantity of total HBV DNA level is subtracted by the quantity of pAAV2/HBV DNA level. […]

Substance | ApoB mRNA knock down, activity in the liver (ApoB mRNA) | pharmacology (serum ApoB and LDL-C) (ApoB) | other results
SEQ ID NO 8: GsCsaststsgsgstsastsTsCsA, no cleavable linker, monoGalNAc; ApoB (GCATTGGTATTCA; sugars from the 5' end l2 d8 l3, all phosphorothioate, methylation of C not given here; monoGalNAc conjugated without cleavable linker) | clearly improved activity in the liver |  | 
SEQ ID NO 10: GsCsaststsgsgstsastsTsCsA, 2PO-DNA (5′ca3′), monoGalNAc; ApoB (CAGCATTGGTATTCA; listed as DNA, chemistry not fully specified) | clearly improved activity in the liver |  | 
SEQ ID NO 14: GsCsaststsgsgstsastsTsCsA, 2PO-DNA (5′ca3′), cholesterol; ApoB (CAGCATTGGTATTCA; chemistry not fully specified) |  | did not exhibit significant pharmacology | 
SEQ ID NO 17: GsTstsgsascsascstsgsTsC, GalNAc cluster Conj2a; ApoB (GTTGACACTGTC; listed as DNA, chemistry not fully specified) |  | effective | potency compared to the cholesterol conjugated compound (ApoB): considerably more potent than the cholesterol conjugated compound
SEQ ID NO 32: GsTstsgsascsascstsgsTsC, 2PO-DNA (5′ca3′), cholesterol; ApoB (CAGTTGACACTGTC; listed as DNA, chemistry not fully specified) |  | effective | 
SEQ ID NO 56: 5′-GsAsGsGscsastsasgscsasgs^mCsAsGsG-3′ with a 5′ GalNac(Conj1a) ({Conj1a}-lG*lA*lG*lG*dC*dA*dT*dA*dG*dC*dA*dG*l[5mC]*lA*lG*lG) |  |  | reduction in viral titer in the liver (HBV; 8 days after delivery of a single dose and 7 days after the initiation of the infection): 90%; effect on replication of HBV / HBV DNA level in the liver (HBV; Balb/C mice, single injection 24 hours before hydrodynamic injection, SEQ ID 55 2 and 10 mg/kg, SEQ ID 56 2.7 and 13.5 mg/kg): excellent dose-dependent antiviral effect
